# Reference: patent US8288410B2, “3-substituted quinolinium and 7H-indolo[2,3-c]quinolinium salts as new antiinfectives” (Florida Agricultural and Mechanical University, priority 2008, dated 2012)
# Read-outs that look alike come from different tables or passages of the source.
# Columns and labels:
# [1] = tested on: Candida albicans ATTC 90028; test: Antifungal susceptibility testing, Candida albicans; type: cell-based
# Outline: (§1)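 Modified NCCLS broth microdilution, samples serially diluted from 20 μg/mL top concentration, inocula per 0.5 McFarland (C. albicans in SDB or RPMI 1640; C. neoformans in SDB; A. fumigatus in YM broth or RPMI-1640 + 5% Alamar Blue). IC50 from percent growth versus concentration; MIC read visually as lowest concentration without detectable growth.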
# [2] = tested on: Cryptococcus neoformans ATCC 90113; test: Antifungal susceptibility testing, Cryptococcus neoformans; type: cell-based
# Outline: as §1
# [3] = tested on: Aspergillus fumigatus ATCC 90906; test: Antifungal susceptibility testing, Aspergillus fumigatus; type: cell-based; settings: for IC50: ATCC90906, read-out: A fu IC50
# Outline: as §1
# MRSA = test: Antibacterial susceptibility testing, MRSA; type: cell-based, methicillin resistant Staphylococcus aureus; settings: for IC50 / MFC / MIC: Staphylococcus aureus
# Outline: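 Each plate carried growth (saline only), solvent and blank (media only) controls, and Ciprofloxacin was the drug control. Plates were read before and after final incubation. MIC, the lowest concentration showing no detectable growth, was judged visually, and IC50 was obtained by plotting percent growth against concentration.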
# Vero Cells = test: Cytotoxicity, Vero cells; type: cell-based
# [4] = ATTC90028, Table 1, read-out: Ca IC50
# [5] = ATTC90028, Table 1, read-out: Ca MFC
# [6] = ATTC90028, Table 1, read-out: Ca MIC
# [7] = ATCC90113, Table 1, read-out: Cn IC50
# [8] = ATCC90113, Table 1, read-out: Cn MFC
# [9] = ATCC90113, Table 1, read-out: Cn MIC
# [10] = ATTC90028, Table 2, read-out: Ca IC50
# [11] = ATTC90028, Table 2, read-out: Ca MFC
# [12] = ATTC90028, Table 2, read-out: Ca MIC
# [13] = ATCC90113, Table 2, read-out: Cn IC50
# [14] = ATCC90113, Table 2, read-out: Cn MFC
# [15] = ATCC90113, Table 2, read-out: Cn MIC
smiles,measurement,setting,value
FC(F)(F)c1cccc(Sc2cc3ccccc3[n+](CCCCC[n+]3cc(Sc4cccc(C(F)(F)F)c4)cc4ccccc43)c2)c1 [XYZ-IV-55],IC50,[1]; [4],15 µg/mL
same,MFC,[1]; [5],> 20 µg/mL
same,MIC,[1]; [6],> 20 µg/mL
same,IC50,[2]; [7],0.95 µg/mL
same,MFC,[2]; [8],20 µg/mL
same,MIC,[2]; [9],2.5 µg/mL
same,IC50,"[3]; Table 1, Aspergillus fumigatus",7.5 µg/mL
same,IC50,"MRSA; Table 1, read-out: MRS IC50",0.8 µg/mL
same,MFC,"MRSA; Table 1, read-out: MRS MFC",10 µg/mL
same,MIC,"MRSA; Table 1, read-out: MRS MIC",2.5 µg/mL
same,TC50 Vero Cells,Vero Cells; Table 1,NC (NC = Not toxic at 10 μg/mL)
same,melting point,,167 to 168 °C
"C[n+]1cc2c(c3cc(C(F)(F)F)ccc3n2CCCCCC2CCCCC2)c2ccccc21.[I-] [JRE-4-17-1, 10-Trifluoromethyl-7-(5-cyclohexyl-pentyl)-5-methyl-7H-indolo[2,3-c]quinolin-5-ium iodide]",IC50,"[1]; ATTC90028, Table 3, read-out: Ca IC50",3.5 µg/mL
same,MFC,"[1]; ATTC90028, Table 3, read-out: Ca MFC",10 µg/mL
same,MIC,"[1]; ATTC90028, Table 3, read-out: Ca MIC",5 µg/mL
same,IC50,"[2]; ATCC90113, Table 3, read-out: Cn IC50",3 µg/mL
same,MFC,"[2]; ATCC90113, Table 3, read-out: Cn MFC",5 µg/mL
same,MIC,"[2]; ATCC90113, Table 3, read-out: Cn MIC",5 µg/mL
same,A fu MFC,[3],10 µg/mL
same,A fu MIC,[3],10 µg/mL
same,IC50,"[3]; Table 3, Aspergillus fumigatus",3.5 µg/mL
same,IC50,"MRSA; Table 3, read-out: MRSA IC50",1.5 µg/mL
same,MFC,"MRSA; Table 3, read-out: MRSA MFC",5 µg/mL
same,MIC,"MRSA; Table 3, read-out: MRSA MIC",2.5 µg/mL
same,TC50 Vero Cells,Vero Cells; Table 3,>10 µg/mL
same,melting point,,231 to 233 °C
FC(F)(F)c1ccccc1Sc1cc2ccccc2[n+](CCCCC[n+]2cc(Sc3ccccc3C(F)(F)F)cc3ccccc32)c1 [XYZ-IV-45],IC50,[1]; [4],> 20 µg/mL
same,MFC,[1]; [5],> 20 µg/mL
same,MIC,[1]; [6],> 20 µg/mL
same,IC50,[2]; [7],0.6 µg/mL
same,MFC,[2]; [8],20 µg/mL
same,MIC,[2]; [9],2.5 µg/mL
same,A fu MIC,[3],20 µg/mL
same,IC50,"[3]; Table 1, Aspergillus fumigatus",9 µg/mL
same,IC50,"MRSA; Table 1, read-out: MRS IC50",0.95 µg/mL
same,MFC,"MRSA; Table 1, read-out: MRS MFC",> 20 µg/mL
same,MIC,"MRSA; Table 1, read-out: MRS MIC",5 µg/mL
same,TC50 Vero Cells,Vero Cells; Table 1,NC (NC = Not toxic at 10 μg/mL)
same,melting point,,175 to 176 °C
C[n+]1cc2c(c3ccc(Cl)cc3n2CCCCCC2CCCCC2)c2ccccc21.[I-] [JRE-3-84-1],Ca IC50,[1]; Table 3,0.70 µg/mL
same,Ca MFC,[1]; Table 3,2.5 µg/mL
same,Ca MIC,[1]; Table 3,1.3 µg/mL
same,Cn IC50,[2]; Table 3,0.80 µg/mL
same,Cn MFC,[2]; Table 3,2.5 µg/mL
same,Cn MIC,[2]; Table 3,1.3 µg/mL
same,A fu MFC,[3],5.0 µg/mL
same,A fu MIC,[3],2.5 µg/mL
same,A fu IC50,"[3]; Table 3, Aspergillus fumigatus",1.5 µg/mL
same,MRSA IC50,MRSA; Table 3,0.80 µg/mL
same,MRSA MFC,MRSA; Table 3,1.3 µg/mL
same,MRSA MIC,MRSA; Table 3,1.3 µg/mL
same,TC50 Vero Cells,Vero Cells; Table 3,>10 µg/mL
Clc1ccc(Nc2cc3ccccc3[n+](CCCCCc3ccccc3)c2)cc1 [JRE-2-89-1],IC50,[1]; [10],15 µg/mL
same,MFC,[1]; [11],> 20 µg/mL
same,MIC,[1]; [12],50 µg/mL
same,IC50,[2]; [13],4 µg/mL
same,MFC,[2]; [14],13 µg/mL
same,MIC,[2]; [15],6.3 µg/mL
same,A fu MIC,[3],50 µg/mL
same,IC50,"[3]; Table 2, Aspergillus fumigatus",10 µg/mL
same,IC50,"MRSA; Table 2, read-out: MRSA IC50",1.5 µg/mL
same,MIC,"MRSA; Table 2, read-out: MRSA MIC",3.1 µg/mL
same,TC50 Vero Cells,Vero Cells; Table 2,>25 µg/mL
same,melting point,,182 to 183 °C
C[n+]1cccc(N(CCCCCC2CCCCC2)c2ccccc2)c1 [JRE-4-1-1],IC50,[1]; [10],3.5 µg/mL
same,MFC,[1]; [11],> 20 µg/mL
same,MIC,[1]; [12],10 µg/mL
same,IC50,[2]; [13],1.5 µg/mL
same,MFC,[2]; [14],5 µg/mL
same,MIC,[2]; [15],2.5 µg/mL
same,A fu MFC,[3],1.3 µg/mL
same,A fu MIC,[3],1.3 µg/mL
same,IC50,"[3]; Table 2, Aspergillus fumigatus",0.9 µg/mL
same,IC50,"MRSA; Table 2, read-out: MRSA IC50",1.5 µg/mL
same,MIC,"MRSA; Table 2, read-out: MRSA MIC",5 µg/mL
same,TC50 Vero Cells,Vero Cells; Table 2,8.3 µg/mL
same,melting point,,124 to 125 °C
FC(F)(F)c1cccc(Sc2cc3ccccc3[n+](CCCCCc3ccccc3)c2)c1.[I-] [XYZ-IV-54],Ca IC50,[1]; Table 1,6.0 µg/mL
same,Ca MFC,[1]; Table 1,— ((-) = >20 μg/mL)
same,Ca MIC,[1]; Table 1,10 µg/mL
same,Cn IC50,[2]; Table 1,1.5 µg/mL
same,Cn MFC,[2]; Table 1,20 µg/mL
same,Cn MIC,[2]; Table 1,2.5 µg/mL
same,A fu IC50,"[3]; Table 1, Aspergillus fumigatus",1.5 µg/mL
same,A fu MFC,"[3]; Table 1, Aspergillus fumigatus",— ((-) = >20 μg/mL)
same,A fu MIC,"[3]; Table 1, Aspergillus fumigatus",5.0 µg/mL
same,MRS IC50,MRSA; Table 1,0.85 µg/mL
same,MRS MFC,MRSA; Table 1,10 µg/mL
same,MRS MIC,MRSA; Table 1,2.5 µg/mL
same,TC50 Vero Cells,Vero Cells; Table 1,NC (NC = Not toxic at 10 μg/mL)
C[n+]1cc(N(CCCCCC2CCCCC2)c2ccc(OC(F)(F)F)cc2)cc2ccccc21.[I-] [JRE-3-99-1],Ca IC50,[1]; Table 2,0.45 µg/mL
same,Ca MFC,[1]; Table 2,10 µg/mL
same,Ca MIC,[1]; Table 2,1.3 µg/mL
same,Cn IC50,[2]; Table 2,0.70 µg/mL
same,Cn MFC,[2]; Table 2,1.3 µg/mL
same,Cn MIC,[2]; Table 2,1.3 µg/mL
same,A fu MFC,[3],2.5 µg/mL
same,A fu MIC,[3],2.5 µg/mL
same,A fu IC50,"[3]; Table 2, Aspergillus fumigatus",0.95 µg/mL
same,MRSA IC50,MRSA; Table 2,0.65 µg/mL
same,MRSA MFC,MRSA; Table 2,1.3 µg/mL
same,MRSA MIC,MRSA; Table 2,1.3 µg/mL
same,TC50 Vero Cells,Vero Cells; Table 2,>10 µg/mL
